Test [1] relates to TNF-α. Put plainly: In-vitro whole cell assay for TNF-α inhibition (LPS-stimulated PBMC, ELISA). The class given is cell-based. Conditions: TNF-α by ELISA. An outline of the steps:
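Read-out: ELISA for TNF-α in supernatants after overnight 37° C LPS challenge (stock 200 ng/mL, RPMI/1% FCS). Cells: Ficoll-isolated human PBMC at 1.67×10^6/mL, exposed to test compound for 1 h at 37° C beforehand. Run in duplicate.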

Test [2] addresses T1, P38 (Homo sapiens, UniProt Q16539). Put plainly: P38 cell, 1 μM LJ. The format is cell-based. Further details: unit not given here.
For test [3], the target named is T1, P38. Put plainly: p38 inhibition in-vitro enzyme assay. Conditions: recombinant 6×His-p38. The format is biochemical. As for the experimental part:
Purified recombinant 6×His-p38 and GST-ATF2 (both expressed in Baculovirus) were served as enzyme and substrate in our p38 inhibition assay. The enzyme reaction was performed in the anti-GST antibody pre-coated 96-well ELISA plate.
A 96-well ELISA plate was coated with 100 μl/well of anti-GST antibody (from Amersham) at a concentration of […] and incubated overnight at 4° C. The ELISA plate was blocked with 100 μl/well of 1% BSA at 25° C. for at least 2 hours, then the plate was washed with 300 μl PBST. The enzyme reaction was started by adding 10 μl of p38 recombinant protein (0.05 nM in final concentration), 10 μl of compound in desired concentration, 10 μl of substrates (670 μM ATP, 200 nM GST-ATF2 in final concentration) and 70 μl of reaction buffer (50 mM HEPES, pH 7.4, 100 mM NaCl, 10 mM MgCl2) and the mixture was incubated at 37° C. for 30 min. Washing the reaction plate with 3×300 μl/well of PBST stopped the enzyme reaction. Detection of the phosphorylated ATF2 substrate was done by the addition of 100 μl of anti-Pi-ATF2 antibody (from Cell Signaling) at a 1:200 dilution. The mixture was incubated at 25° C. for 30 min. A solution of 100 μl of HRP-conjugated goat anti-rabbit antibody (from Pierce) at a 1:250 dilution was added and the mixture and incubated at 25° C. for 30 min. The plate was washed with 6×300 μI PBST and 100 μl of OPD substrate (from Sigma) was then added. The mixture was incubated at 25° C. for 10 min. before adding 100 μl of 3 N H2SO4. The plate was read at 490 nm.
The % inhibition of each test compound was calculated by the following formula: % inhibition=[1−(sample−BKG)/(CTRL−BKG)]×100. The IC50 of each test compound was determined by a triplicate-8 point dose titration curve by Prism GraphPad program. […]

For test [4], the system named is TNF-α. Put plainly: In vivo rodent assay for inhibition of LPS-induced TNF-α production. Further details: species or system Mice (BALB/cJ females). Conditions: Mus musculus, po, 0.5 h, 10 mg/kg oral, 0.5 h, read-out: Mouse 10 mg/kg % inhib 0.5 h. An outline of the steps: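 Female BALB/cJ mice or male Lewis rats, fasted 30 min, received compound orally (mg/kg) at various times before intraperitoneal LPS at 1 mg/kg. Blood was collected by cardiac puncture 1 h after LPS, and serum TNF-α was quantified by species-specific ELISA.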

T1 sequence (Q16539 whole entry): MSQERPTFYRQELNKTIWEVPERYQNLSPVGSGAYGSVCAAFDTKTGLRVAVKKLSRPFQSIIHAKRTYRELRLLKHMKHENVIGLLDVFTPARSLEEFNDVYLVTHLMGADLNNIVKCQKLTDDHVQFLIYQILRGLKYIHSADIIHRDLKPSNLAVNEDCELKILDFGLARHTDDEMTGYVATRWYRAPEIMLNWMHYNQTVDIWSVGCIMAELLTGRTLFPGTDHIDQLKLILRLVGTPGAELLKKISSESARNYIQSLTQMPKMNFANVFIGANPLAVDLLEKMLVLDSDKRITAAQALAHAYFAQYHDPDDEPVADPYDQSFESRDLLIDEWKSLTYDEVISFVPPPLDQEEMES

With `CCOC(=O)c1[nH]cc(-c2ccncc2)c1-c1ccc(F)c(F)c1` [Cpd 69], the IC50 – broadly, the point on the concentration scale where inhibition reaches its midpoint – was 560 nM with TNF-α [1] and above 10000 nM at P38 [3]. For the same compound, at P38 [2], the “P38 cell 1 μM LJ” value is on record as 17. Further, in the test with TNF-α [4], the inhibition in vivo at 10 mg/kg was -32%.

Take `CCOC(=O)c1c(-c2cccc(C(F)(F)F)c2)c(-c2ccncc2)c(N2CCNCC2)n1C` [Cpd 104]: the IC50 in the test on TNF-α [1] was 21 nM; at P38 [3] it was above 10000 nM. Also, on P38 [2], the “P38 cell 1 μM LJ” value amounted to 11. Besides, the inhibition in vivo at 10 mg/kg in the test on TNF-α [4] came out at 83%.

In the case of `CCOC(=O)c1c(-c2ccc(F)c(F)c2)c(-c2ccncc2)c(Br)n1C` [Cpd 70], the IC50 in the test on TNF-α [1] was 2720 nM; at P38 [3] it was above 10000 nM. Moreover, on P38 [2], the “P38 cell 1 μM LJ” value is 12. Further, the inhibition in vivo at 10 mg/kg in the test with TNF-α [4] was -36%.

Consider `CNC(=O)c1c(-c2ccc(F)cc2)c(-c2ccncc2)c(N2CCNCC2)n1C` [Cpd 99], for which the IC50 was 106 nM with TNF-α [1] and above 10000 nM on P38 [3]. Besides, the “P38 cell 1 μM LJ” value on P38 [2] worked out at 7. For the same compound, the inhibition in vivo at 10 mg/kg with TNF-α [4] was -7%.

As to `CCC(=O)c1c(-c2ccc(F)cc2)c(-c2ccncc2)c(N2CCNCC2)n1C` [Cpd 106], the IC50 is 67 nM in the test on TNF-α [1] and above 10000 nM on P38 [3]. In addition, on P38 [2], the “P38 cell 1 μM LJ” value is 21. Besides, in the test with TNF-α [4], the inhibition in vivo at 10 mg/kg stood at 32%.

In the case of `CCOC(=O)c1c(-c2cc(F)cc(F)c2)c(-c2ccncc2)cn1C` [Cpd 64], the IC50 came to 33 nM in the test on TNF-α [1] and 8690 nM on P38 [3]. Also, the “P38 cell 1 μM LJ” value on P38 [2] is listed as 7. The inhibition in vivo at 10 mg/kg with TNF-α [4] was -31%.

Regarding `COC(=O)c1c(-c2ccc(F)cc2)c(-c2ccncc2)c(N2CCc3ccccc3C2)n1C` [Cpd 93], the IC50 is 66 nM in the test with TNF-α [1] and above 10000 nM at P38 [3]. Besides, the “P38 cell 1 μM LJ” value at P38 [2] is given as 20. Moreover, the inhibition in vivo at 10 mg/kg in the test with TNF-α [4] is 32%.

`CCOC(=O)c1c(-c2ccc(F)cc2)c(-c2ccncc2)c(N2CCNCC2)n1C` [Cpd 96]: the 50% inhibitory concentration (IC50) with TNF-α [1] was 16 nM; on P38 [3], above 10000 nM. The “P38 cell 1 μM LJ” value at P38 [2] amounted to 22. Besides, the inhibition in vivo at 10 mg/kg in the test with TNF-α [4] came to 79%.

Turning to `COC(=O)c1c(-c2ccc(F)cc2)c(-c2ccncc2)c(NCCN2CCOCC2)n1C` [Cpd 5], the results for the IC50 in the test on TNF-α [1] and on P38 [3] were 50 nM and above 10000 nM, respectively. For the same compound, the “P38 cell 1 μM LJ” value at P38 [2] amounted to 2. In the test with TNF-α [4], the inhibition in vivo at 10 mg/kg is 44%.

As for `Fc1ccc(-c2c[nH]c(CNCc3ccncc3)c2-c2ccncc2)cc1` [Cpd 74], the IC50 in the test with TNF-α [1] was 74 nM; at P38 [3], 400 nM. On P38 [2], the “P38 cell 1 μM LJ” value worked out at 25. In addition, the inhibition in vivo at 10 mg/kg in the test on TNF-α [4] is 47%.

For the compound `CCOC(=O)c1c(-c2cc(F)cc(F)c2)c(-c2ccncc2)c(N2CCNCC2)n1C` [Cpd 100], the half-maximal inhibitory concentration (IC50) with TNF-α [1] is 93 nM; on P38 [3] it was above 10000 nM. On P38 [2], the “P38 cell 1 μM LJ” value is listed as 12. The inhibition in vivo at 10 mg/kg in the test on TNF-α [4] is 75%.

Take `C[C@H](Nc1nccc(-c2cn(CCN3CCOCC3)cc2-c2ccc(F)cc2)n1)c1ccccc1` [Cpd 68]: the values for the IC50 with TNF-α [1] and on P38 [3] were 4 nM and 7 nM, respectively. In addition, the “P38 cell 1 μM LJ” value at P38 [2] is 83. Also, the inhibition in vivo at 10 mg/kg with TNF-α [4] is -21%.

For the compound `COC(=O)c1c(-c2cccc(F)c2)c(-c2ccncc2)c(N2CCNCC2)n1C` [Cpd 105], the IC50 is 69 nM in the test on TNF-α [1] and above 10000 nM at P38 [3]. For the same compound, the “P38 cell 1 μM LJ” value on P38 [2] is on record as 31. In addition, the inhibition in vivo at 10 mg/kg in the test on TNF-α [4] worked out at 49%.

Turning to `CCOC(=O)c1c(-c2ccc(C)cc2)c(-c2ccncc2)c(N2CCNCC2)n1C` [Cpd 83], the concentration for half-maximal inhibition (IC50) with TNF-α [1] was found to be 60 nM; at P38 [3], 3940 nM. Besides, the “P38 cell 1 μM LJ” value at P38 [2] was determined as 53. Besides, the inhibition in vivo at 10 mg/kg in the test with TNF-α [4] turned out to be 79%.

For `CCOC(=O)c1[nH]cc(-c2ccncc2)c1-c1ccccc1` [Cpd 71], the IC50 is 149 nM with TNF-α [1] and 572 nM on P38 [3]. Further, the “P38 cell 1 μM LJ” value on P38 [2] stood at 9. Besides, the inhibition in vivo at 10 mg/kg with TNF-α [4] amounted to 58%.

Regarding `Cn1cc(-c2ccc(F)cc2)c(-c2ccncc2)c1N1CCNCC1` [Cpd 78], the IC50 in the test on TNF-α [1] was found to be 15 nM; on P38 [3], 2020 nM. The “P38 cell 1 μM LJ” value at P38 [2] is 61. Besides, in the test with TNF-α [4], the inhibition in vivo at 10 mg/kg is 75%.

Source of the values: US20050043331A1, “Substituted 3-(2,5-disubstituted)pyridyl-4-aryl pyrroles for treating inflammatory diseases” (priority 2002, published 2005).
